Results published in US20130324489A1, “NEW ANTIFUNGAL COMPOSITIONS” (DSM IP ASSETS B.V., priority 2011, published 2013).
Several values for one entry are separate records, joined by “and”; a condition that tells them apart may be missing. Identical values can stand only once.

Legend:
[1] = tested on: Botrytis cinerea; test: In vitro antifungal activity, 96-well microtiter plates; assay type: cell-based; settings: 1.25 ppm natamycin, 25° C.
Method: The following compositions were tested: […] After incubation of the microtiter plates at 25° C., the in vitro antifungal activity (%) of the individual active ingredients was assessed by calculating the reduction in mould growth observed in the presence of the active ingredient in comparison to the mould growth observed in the absence of the active ingredient. The expected antifungal activity (E in %) of the active ingredient combination was calculated according to the Colby equation (Colby, 1967): […] wherein X and Y are the observed antifungal activities (in %) of the individual active ingredients X and Y, respectively.

[2] = tested on: Botrytis cinerea; test: Treatment of wounded apples inoculated with Botrytis cinerea (dip, mould growth); assay type: in vivo; settings: 250 ppm natamycin, 20° C.
Method: Twelf fresh, organic apples were used per treatment. Each apple was wounded once using a cork borer according to the method described by de Lapeyre de Bellaire and Dubois (1987). Subsequently, each wound was inoculated with 10 μl of a Botrytis cinerea suspension containing 1×10^5 of spores/ml. […] In addition, the antifungal compositions comprised 3.1% (w/w) beeswax, 0.76% (w/w) glycerol, 0.66% (w/w) polyoxyethylene sorbitan monostearate (Tween 60), 0.03% (w/w) methylhydroxyethylcellulose (MHEC), 0.02% (w/w) xanthan gum, 0.02% (w/w) anti-foaming agent, 0.15% (w/w) citric acid and 0.01% (w/w) potassium sorbate. The pH of the compositions was 4. […] The treated apples were incubated in a closed box in the dark at 20° C.
During incubation, the treated apples were assessed on mould growth according to the two methods described in Example 8.

[3] = tested on: Penicillium italicum; test: In vitro antifungal activity, 96-well microtiter plates; assay type: cell-based; settings: 0.63 ppm natamycin, 25° C.
Method: Subsequently, 100 μl of a Botrytis cinerea suspension prepared in PCB medium was used to inoculated each well with 2.5×10^3 spores/ml.
After incubation of the microtiter plates at 25° C., the in vitro antifungal activity (%) of the individual active ingredients was assessed by calculating the reduction in mould growth observed in the presence of the active ingredient in comparison to the mould growth observed in the absence of the active ingredient. The expected antifungal activity (E in %) of the active ingredient combination was calculated according to the Colby equation (Colby, 1967): […]
wherein X and Y are the observed antifungal activities (in %) of the individual active ingredients X and Y, respectively. If the observed antifungal activity (O in %) of the combination exceeds the expected antifungal activity (E in %) of the combination and the resulting synergy factor O/E is thus >1.0, the combined application of the active ingredients leads to a synergistic antifungal effect.
The experiment was conducted as described in Example 10, except for the fact that the following compositions were tested:
Furthermore, Penicillium italicum was used for inoculation. The antifungal activity (in %) of the individual and combined active ingredients was determined according to the method described in Example 10.

[4] = tested on: Penicillium italicum; test: Treatment of wounded mandarins inoculated with Penicillium italicum (dip, mould growth); assay type: in vivo; settings: 500 ppm natamycin, 2000 ppm procymidone or both, 20° C.
Method: Ten fresh, organic mandarins were used per treatment. The peel of each mandarin was wounded once using a cork borer according to the method described by de Lapeyre de Bellaire and Dubois (1987). Subsequently, each wound was inoculated with 10 μl of a Penicillium italicum suspension containing 1×10^4 of spores/ml. […] In addition, the antifungal compositions comprised 3.1% (w/w) beeswax, 0.76% (w/w) glycerol, 0.66% (w/w) polyoxyethylene sorbitan monostearate (Tween 60), 0.03% (w/w) methylhydroxyethylcellulose (MHEC), 0.02% (w/w) xanthan gum, 0.02% (w/w) anti-foaming agent, 0.15% (w/w) citric acid and 0.01% (w/w) potassium sorbate. The pH of the compositions was 4. A composition without natamycin or procymidone was used as control.
The treated mandarins were incubated in a closed box in the dark at 20° C. and assessed on mould growth after 6, 8, 10, 13, 15 and 18 days of incubation. The antifungal activity (in %) of the individual and combined active ingredients was determined by calculating the reduction in mould growth observed on the mandarins treated with the antifungal composition in comparison to the mould growth on the mandarins treated with the control composition according to the Colby method (Colby, 1967) described in Example 3.

[5] = 1.5 ppm vinclozolin, 1.25 ppm procymidone, alone or natamycin + one of them, day 3
[6] = 1.5 ppm vinclozolin, 1.25 ppm procymidone, alone or natamycin + one of them, day 6
[7] = 250 ppm procymidone or both, day 6
[8] = 250 ppm procymidone or both, day 7-11
[9] = 250 ppm procymidone or both, day 12-13
[10] = 250 ppm procymidone or both, day 13
[11] = 250 ppm procymidone or both, day 14
[12] = 250 ppm procymidone or both, day 14-25
[13] = 250 ppm procymidone or both, day 15
[14] = 250 ppm procymidone or both, day 17
[15] = 250 ppm procymidone or both, day 18
[16] = 250 ppm procymidone or both, day 20
[17] = 250 ppm procymidone or both, day 22
[18] = 250 ppm procymidone or both, day 25
[19] = 500 ppm procymidone or both, day 4
[20] = 500 ppm procymidone or both, day 5-6
[21] = 500 ppm procymidone or both, day 7-11
[22] = 500 ppm procymidone or both, day 12
[23] = 500 ppm procymidone or both, day 13
[24] = 500 ppm procymidone or both, day 14
[25] = 500 ppm procymidone or both, day 14-25
[26] = 500 ppm procymidone or both, day 15
[27] = 500 ppm procymidone or both, day 17
[28] = 500 ppm procymidone or both, day 18
[29] = 500 ppm procymidone or both, day 20
[30] = 500 ppm procymidone or both, day 22
[31] = 500 ppm procymidone or both, day 25
[32] = 5.0 ppm vinclozolin, 10 ppm procymidone, alone or natamycin + one of them, day 3
[33] = 50 ppm procymidone or both, day 5

Row | Structure (SMILES) | Observed antifungal activity O (%) [1, 5] [%] | Observed antifungal activity O (%) [1, 6] [%] | Number of moulded apples/total number of 12 apples [2, 7] | Number of moulded apples/total number of 12 apples [2, 8] | Number of moulded apples/total number of 12 apples [2, 9] | Observed antifungal activity O (%) [2, 10] [%] | Observed antifungal activity O (%) [2, 11] [%] | Number of moulded apples/total number of 12 apples [2, 12] | Observed antifungal activity O (%) [2, 13] [%] | Observed antifungal activity O (%) [2, 14] [%] | Observed antifungal activity O (%) [2, 15] [%] | Observed antifungal activity O (%) [2, 16] [%] | Observed antifungal activity O (%) [2, 17] [%] | Observed antifungal activity O (%) [2, 18] [%] | Number of moulded apples/total number of 12 apples [2, 19] | Number of moulded apples/total number of 12 apples [2, 20] | Number of moulded apples/total number of 12 apples [2, 21] | Number of moulded apples/total number of 12 apples [2, 22] | Number of moulded apples/total number of 12 apples [2, 23] | Observed antifungal activity O (%) [2, 23] [%] | also measured
1 | C[C@@H]1C/C=C/C=C/C=C/C=C/[C@H](O[C@@H]2O[C@H](C)[C@@H](O)[C@H](N)[C@@H]2O)C[C@@H]2O[C@](O)(C[C@@H](O)C[C@H]3O[C@@H]3/C=C/C(=O)O1)C[C@H](O)[C@H]2C(=O)O [Natamycin, natamycin] | 0 | 0 | 12/12 | 12/12 | 12/12 | 31 | 26 | 12/12 | 23 | 18 | 18 | 16 | 14 | 14 | 11 and 11/12 | 12 and 12/12 | 12 and 12/12 | 12/12 | 12/12 | 31 | Observed antifungal activity O (%) ([1]; 3.0 ppm iprodione or both, day 5): 50%; Observed antifungal activity O (%) ([1]; 7.0 ppm vinclozolin, 2.0 ppm procymidone, alone or natamycin + one of them, day 10): 0%; Observed antifungal activity O (%) ([1]; 8.0 ppm iprodione or both, day 12): 0%; Observed antifungal activity O (%) [2, 24]: 26%; Number of moulded apples/total number of 12 apples [2, 25]: 12/12; Observed antifungal activity O (%) [2, 26]: 23%; Observed antifungal activity O (%) [2, 27]: 18%; Observed antifungal activity O (%) [2, 28]: 18%; Observed antifungal activity O (%) [2, 29]: 16%; Observed antifungal activity O (%) [2, 30]: 14%; Observed antifungal activity O (%) [2, 31]: 14%; Observed antifungal activity O (%) [3, 32]: 0%; Observed antifungal activity O (%) [3, 33]: 0%; Observed antifungal activity O (%) ([4]; day 6): 82%; Observed antifungal activity O (%) ([4]; day 8): 73%; Observed antifungal activity O (%) ([4]; day 10): 66%; Observed antifungal activity O (%) ([4]; day 13): 59%; Observed antifungal activity O (%) ([4]; day 15): 55%; Observed antifungal activity O (%) ([4]; day 18): 44%
2 | CC12CC1(C)C(=O)N(c1cc(Cl)cc(Cl)c1)C2=O (stereo not drawn) [Procymidone, procymidone] | 0 | 0 | 7 and 7/12 | 8 and 8/12 | 12/12 | 65 | 55 | 12/12 | 50 | 44 | 37 | 31 | 26 | 17 | 8 and 8/12 | 8 and 8/12 | 8 and 8/12 | 10 and 10/12 | 11 and 11/12 | 75 | Observed antifungal activity O (%) [2, 24]: 71%; Number of moulded apples/total number of 12 apples [2, 25]: 12/12; Observed antifungal activity O (%) [2, 26]: 67%; Observed antifungal activity O (%) [2, 27]: 57%; Observed antifungal activity O (%) [2, 28]: 51%; Observed antifungal activity O (%) [2, 29]: 45%; Observed antifungal activity O (%) [2, 30]: 38%; Observed antifungal activity O (%) [2, 31]: 26%; Observed antifungal activity O (%) [3, 32]: 0%; Observed antifungal activity O (%) [3, 33]: 0%; Observed antifungal activity O (%) ([4]; day 6): 0%; Observed antifungal activity O (%) ([4]; day 8): 0%; Observed antifungal activity O (%) ([4]; day 10): 0%; Observed antifungal activity O (%) ([4]; day 13): 0%; Observed antifungal activity O (%) ([4]; day 15): 0%; Observed antifungal activity O (%) ([4]; day 18): 0%
